Where two headings read alike, the source gives them in different places.
Assays:
normal hepatocytes = experiment: Metal-induced lipid peroxidation (MDA) in normal cultured hepatocytes; assay type: cell-based, Wistar rats; details: for IC50: Rattus norvegicus, Hepatocyte, normal hepatocytes, 100 μM, read-out: IC50 of lipid peroxidation inhibition
Excerpt: (§1) Isolation and culture of hepatocytes: Male Wistar rats weighing 180 to 210 g were fed with standard chow and water ad libitum. Hepatocytes were isolated by collagenase perfusion method as described by Wolkoff et al. (J Clin Invest 1987; 79: 1259-1268). Briefly, the liver was perfused with collagenase type IV (Sigma Chemical, St. Louis, Mo., USA) and isolated hepatocytes were suspended in culture medium consisting of Waymouth's 752/1 (Gibco, Grand Island, N.Y., USA) containing 5% heat-inactivated fetal bovine serum, 2.5 mM CaCl2, 5 μg/mL bovine insulin (Sigma), 100 U/mL penicillin and 0.1 mg/mL streptomycin. The isolated cells were further fractionated on Percoll density gradients to obtain a viability higher than 98%, as ascertained by trypan blue. Approximately 1.5×10^6 cells in 3 mL or approximately 5.0×10^6 cells in 10 mL in individual 60- or 100-mm diameter Lux culture dishes were placed in an incubator in an atmosphere of […] at 37° C., and then separately cultured. After a 9 hr incubation, the monolayer of hepatocytes was cultured for an additional 12 hr in the medium containing 1.0 mM α-linolenic acid (LNA)-bovine serum albumin (BSA). Seventy percent or more of added LNA was adsorbed by cultured cells after incubation.
(§2) After incubation for 6 hr, the medium was separated. Malonyldialdehyde (MDA) in the medium was assessed by a slight modification of the Uchiyama and Mihara method (Anal Biochem 1978; 86: 271-278). Briefly, to 0.1 ml of the medium in a 12 ml glass tube, 3 ml of 1% […] and 1 ml of 0.67% thiobarbituric acid were added and heated at 100° C. for 45 min. After cooling in ice water, 4 ml of n-butanol was added and the resulting mixture was shaken and then centrifuged to separate the butanol layer. The fluorescence intensity in the butanol layer was assayed at the excitation and emission wavelengths of 515 and 553 nm, respectively. The auto-oxidation products of fatty acid in the medium were within 0.3 nmol and were used as blank. Dimethyl sulfoxide (20 μl) was diluted in 2000 μl of the culture medium, including control cultures of metal ions only in the absence of the test compounds and the final concentration of 1% dimethyl sulfoxide had no measurable effect on lipid peroxidation in basal cultured hepatocytes.

LNA-loaded hepatocytes = experiment: Metal-induced lipid peroxidation (MDA) in LNA-loaded hepatocytes; assay type: cell-based, Wistar rats; details: Rattus norvegicus, Hepatocyte, LNA-loaded cells, 100 μM, read-out: IC50 of lipid peroxidation inhibition
Excerpt: as §1
as §2, with “Dimethyl sulfoxide (20 μl) was diluted in 2000 μl of the culture medium, including control cultures of metal ions only in the absence of the test compounds and the final concentration of 1% dimethyl sulfoxide had no measurable effect on lipid peroxidation in basal cultured hepatocytes.” left out

lysosomal fractions [1] = experiment: Oxidative damage tests of lysosomes: enzyme release with AAPH or AMVN radical generators; assay type: biochemical, Wistar rats; details: 10^−4M, ± SE
Description: (§3) Preparation of lysosomal fractions: After homogenizing in 9 volumes of 0.3 M sucrose, the liver was centrifuged at 450×g for 10 min. The supernatants were again centrifuged at 3500×g for 10 min, and the lysosome-containing supernatant was centrifuged at 10000×g for 10 min. The pellets were washed and centrifuged at 10000×g for 10 min, and resuspended in the sucrose buffer to a protein concentration of 15 mg/ml.
Oxidative damage tests of lysosomes: Assays for the release of acid phosphatase and β-N-acetylglucosaminidase from lysosomes were carried out by incubating lysosomal suspensions in the presence of test compounds. […] For this experiment, lysosomal suspensions were preincubated in the presence of 1 mM of the test compounds for 30 min and centrifuged at 12000×g for 10 min. Then the pellets were washed in 0.15 M KCl-5 mM Tris buffer (pH 7.4), centrifuged and re-suspended in 0.1M acetate buffer (pH 5.5).

lysosomal fractions [2] = experiment: Lysosome fragility test: LDH leakage and β-galactosidase release with metal ions; assay type: biochemical, Wistar rats; details: YHK at the higher concentration, p<0.05
Description: as §3
Lysosome fragility test: The fraction was incubated with the test compound and each of metal ions and β-galactosidase activity was measured in accordance with the method of Olsson et al. (Anal Cell Pathol 1990; 2: 179-188), using 4-methylumbelliferyl-β-galactosidase as a substrate. The results were expressed as percentage of total β-galactosidase released. Lactate dehydrogenase leakage was also measured in the culture medium in accordance with the method of Hillaire et al. (Hepatology 1995; 22: 82-87).

COc1cc(C2Oc3cc([C@H]4Oc5cc(O)cc(O)c5C(=O)[C@@H]4O)ccc3OC2CO)ccc1O (stereo partly drawn) [Sylibin, sylibin]
IC50 (normal hepatocytes; CuSO4-induced): 7.3 ± 0.3 µM
IC50 (normal hepatocytes; FeSO4-induced): 18.9 ± 3.2 µM
IC50 (normal hepatocytes; VCl3-induced): 10.8 ± 1.2 µM
MDA generation in the medium (normal hepatocytes; metal catalysts, up to 6 hr, p<0.05): significantly decreased
IC50 (LNA-loaded hepatocytes; CuSO4-induced): 16.8 ± 1.5 µM
IC50 (LNA-loaded hepatocytes; FeSO4-induced): 79.9 ± 9.2 µM
IC50 (LNA-loaded hepatocytes; VCl3-induced): 17.3 ± 1.2 µM
Acid phosphatase release, enzyme activity (lysosomal fractions [1]; AAPH-induced release): 51.9 ± 5.6 % of control
β-N-acetylglucosaminidase release, enzyme activity (lysosomal fractions [1]; AAPH-induced release): 54.6 ± 4.7 % of control
Acid phosphatase release, enzyme activity (lysosomal fractions [1]; AMVN-induced release): 83.9 ± 10.4 % of control
β-N-acetylglucosaminidase release, enzyme activity (lysosomal fractions [1]; AMVN-induced release): 77.3 ± 7.4 % of control
β-galactosidase release from lysosomes (lysosomal fractions [2]): significantly decreased
